Measured values published in publication PMC10150354, “Linearization of the Brevicidine and Laterocidine Lipopeptides Yields Analogues That Retain Full Antibacterial Activity” (Journal of Medicinal Chemistry, 2023).
≈ marks a conversion by molar mass, not a printed value. Where a SMILES comes first, the peptide text is derived from it. Bridges are numbered along the chain shown (N, C = ends). [ ]: non-standard residue; d: D form. The star is where a group is joined. ξ: configuration not given here. Octanoyl(7-Me) = CC(C)CCCCCC(=O)*; Hexanoyl(4ξ-Me) = CCC(C)CCC(=O)*; dOrn = NCCC[C@@H](N)C(=O)O; Orn = NCCC[C@H](N)C(=O)O

Legend:
E. coli (MCR-1) = assay type: cell-based, Escherichia coli; conditions: microbroth dilution per CLSI, MHB, 18 h at 37 °C, visual inspection, three technical replicates, E. coli 25922 carrying mcr-1
Method in brief: (§1)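 CLSI broth microdilution in MHB, polypropylene plates; log-phase bacteria (OD600 ~0.5, grown in TSB, with kanamycin for the E. coli ATCC 25922 MCR-1 strain) added at 2 × 10^5 CFU/mL. Read visually after 18 h at 37 °C with shaking; MIC = lowest concentration preventing visible growth, three technical replicates.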

E. coli ATCC 25922 = assay type: cell-based, Escherichia coli; conditions: for MIC (µg/mL) against E. coli (ATCC 25922): (Supplement 2); for Antibacterial activity (MIC) E. coli ATCC 25922: microbroth dilution per CLSI, MHB, 18 h at 37 °C, visual inspection, three technical replicates
Method in brief: as §1

K. pneumoniae ATCC 13883 = assay type: cell-based, Klebsiella pneumoniae; conditions: microbroth dilution per CLSI, MHB, 18 h at 37 °C, visual inspection, three technical replicates
Method in brief: as §1

A. baumannii ATCC 17961 = assay type: cell-based, Acinetobacter baumannii; conditions: microbroth dilution per CLSI, MHB, 18 h at 37 °C, visual inspection, three technical replicates
Method in brief: as §1

P. aeruginosa PAO1 = assay type: cell-based, Pseudomonas aeruginosa; conditions: microbroth dilution per CLSI, MHB, 18 h at 37 °C, visual inspection, three technical replicates
Method in brief: as §1

S. aureus USA300 = assay type: cell-based, Staphylococcus aureus; conditions: microbroth dilution per CLSI, MHB, 18 h at 37 °C, visual inspection, three technical replicates
Method in brief: as §1

Row | Compound | Antibacterial activity (MIC) E. coli (MCR-1) (E. coli (MCR-1)) | MIC (µg/mL) against E. coli (ATCC 25922) (E. coli ATCC 25922) | Antibacterial activity (MIC) E. coli ATCC 25922 (E. coli ATCC 25922) | Antibacterial activity (MIC) K. pneumoniae ATCC 13883 (K. pneumoniae ATCC 13883) | Antibacterial activity (MIC) A. baumannii ATCC 17961 (A. baumannii ATCC 17961) | Antibacterial activity (MIC) P. aeruginosa PAO1 (P. aeruginosa PAO1) | Antibacterial activity (MIC) S. aureus USA300 (S. aureus USA300)
1 | CC[C@H](C)[C@H](NC(=O)[C@H](CCSC)NC(=O)[C@H](Cc1c[nH]c2ccccc12)NC(=O)[C@@H](CCCN)NC(=O)CNC(=O)[C@H](CCCN)NC(=O)[C@@H](CCCN)NC(=O)[C@@H](Cc1c[nH]c2ccccc12)NC(=O)[C@@H](Cc1ccc(O)cc1)NC(=O)[C@@H](CO)NC(=O)CCCCCC(C)C)C(=O)N[C@@H](CC(N)=O)C(=O)NCC(=O)NCC(N)=O [LL(Met9)-NH2 (44)] ({Octanoyl(7-Me)}-[dS][dY][dW][dOrn][Orn]G[dOrn]WMINGG-NH2) | 4 µg/mL | 4 µg/mL (≈ 2.42 µM) | 4 µg/mL | 4 µg/mL | 4 µg/mL | 4 µg/mL | >32 µg/mL
2 | CC[C@H](C)[C@H](NC(=O)[C@H](CC(C)C)NC(=O)[C@H](Cc1c[nH]c2ccccc12)NC(=O)[C@@H](CCCN)NC(=O)CNC(=O)[C@H](CCCN)NC(=O)[C@@H](CCCN)NC(=O)[C@@H](Cc1c[nH]c2ccccc12)NC(=O)[C@@H](Cc1ccc(O)cc1)NC(=O)[C@@H](CO)NC(=O)CCCCCC(C)C)C(=O)N[C@@H](CC(N)=O)C(=O)NCC(=O)NCC(N)=O [LL(Leu9)-NH2 (42)] ({Octanoyl(7-Me)}-[dS][dY][dW][dOrn][Orn]G[dOrn]WLINGG-NH2) | 8 µg/mL | 4 µg/mL (≈ 2.45 µM) | 4 µg/mL | 8 µg/mL | 4 µg/mL | 8 µg/mL | >32 µg/mL
3 | CCC(C)CCC(=O)N[C@H](CC(N)=O)C(=O)N[C@H](Cc1ccc(O)cc1)C(=O)N[C@H](Cc1c[nH]c2ccccc12)C(=O)N[C@H](CCCN)C(=O)N[C@@H](CCCN)C(=O)NCC(=O)N[C@H](CCCN)C(=O)N[C@@H](Cc1c[nH]c2ccccc12)C(=O)N[C@@H]1C(=O)N[C@@H]([C@@H](C)CC)C(=O)NCC(=O)N[C@@H](CO)C(=O)O[C@@H]1C (some centres unmarked) [Brev (1), brevicidine] ({Hexanoyl(4ξ-Me)}-[dN][dY][dW][dOrn][Orn]G[dOrn]WTIGS; ester 9-C) | 4 µg/mL | – | 4 µg/mL | 2 µg/mL | 4 µg/mL | 8 µg/mL | >32 µg/mL
4 | CC(C)CCCCCC(=O)N[C@H](CO)C(=O)N[C@H](Cc1ccc(O)cc1)C(=O)N[C@H](Cc1c[nH]c2ccccc12)C(=O)N[C@H](CCCN)C(=O)N[C@@H](CCCN)C(=O)NCC(=O)N[C@H](CCCN)C(=O)N[C@@H](Cc1c[nH]c2ccccc12)C(N)=O [Δ9–13LL-NH2 (16)] ({Octanoyl(7-Me)}-[dS][dY][dW][dOrn][Orn]G[dOrn]W-NH2) | >32 µg/mL | – | >32 µg/mL | >32 µg/mL | 32 µg/mL | >32 µg/mL | >32 µg/mL
5 | CCC(C)CCC(=O)N[C@H](CC(N)=O)C(=O)N[C@H](Cc1ccc(O)cc1)C(=O)N[C@H](Cc1c[nH]c2ccccc12)C(=O)N[C@H](CCCN)C(=O)N[C@@H](CCCN)C(=O)NCC(=O)N[C@H](CCCN)C(=O)N[C@@H](Cc1c[nH]c2ccccc12)C(=O)N[C@H](C(N)=O)[C@@H](C)O (some centres unmarked) [Δ10–12LB-NH2 (13)] ({Hexanoyl(4ξ-Me)}-[dN][dY][dW][dOrn][Orn]G[dOrn]WT-NH2) | >32 µg/mL | – | >32 µg/mL | >32 µg/mL | >32 µg/mL | >32 µg/mL | >32 µg/mL
